≈ marks a conversion by molar mass, not a printed value.
Key:
[1] = molecular target: human dipeptidylpeptidase 7 (hDPP7) (Homo sapiens (Human), UniProt Q9UHL4); assay: hDPP7 inhibition assay; type: biochemical; conditions: hDPP7 15 nM, Ala-Pro-amino-methylcoumarin 5 μM, n = 1
Description: Compounds were tested in a biochemical inhibition assay using human dipeptidylpeptidase 7 (hDPP7) enzyme at 15 nM FAC (BPS Bioscience, #80070) and the substrate Ala-Pro-amino-methylcoumarin (BPS Bioscience, #80305) at 5 μM FAC. The enzymatic reactions were conducted in duplicate at rt for 30 min in 50 μL DPP assay buffer (BPS Bioscience, #80300). Compound solutions (in DMSO) at 10 CR, 3 fold dilution series were prepared in assay buffer ten-fold higher than the final concentration, and 5 μL of the dilution was added to a 50 μL reaction so that the highest compound concentration was 100 μM FAC and the concentration of DMSO was 1% in all wells. The plates were read on a Tecan Infinite M1000 microplate reader with excitation 340 nm and emission 460 nm. Data were analyzed in Graph Pad Prism. IC50 values were determined by plotting % inhibition versus log compound concentration and using a one site dose response model. Raw data signals were normalized using 1% DMSO as 0% control and no enzyme as 100% inhibitor control.

[2] = molecular target: FAP (Mus musculus (Mouse), UniProt P97321); assay: FAP plasma inhibition assay, mouse plasma; type: biochemical; conditions: mouse plasma diluted 1:67, Ala-Pro-AMC 75 μM
Chain of FAP (Mus musculus (Mouse), UniProt P97321) (P97321 24-761): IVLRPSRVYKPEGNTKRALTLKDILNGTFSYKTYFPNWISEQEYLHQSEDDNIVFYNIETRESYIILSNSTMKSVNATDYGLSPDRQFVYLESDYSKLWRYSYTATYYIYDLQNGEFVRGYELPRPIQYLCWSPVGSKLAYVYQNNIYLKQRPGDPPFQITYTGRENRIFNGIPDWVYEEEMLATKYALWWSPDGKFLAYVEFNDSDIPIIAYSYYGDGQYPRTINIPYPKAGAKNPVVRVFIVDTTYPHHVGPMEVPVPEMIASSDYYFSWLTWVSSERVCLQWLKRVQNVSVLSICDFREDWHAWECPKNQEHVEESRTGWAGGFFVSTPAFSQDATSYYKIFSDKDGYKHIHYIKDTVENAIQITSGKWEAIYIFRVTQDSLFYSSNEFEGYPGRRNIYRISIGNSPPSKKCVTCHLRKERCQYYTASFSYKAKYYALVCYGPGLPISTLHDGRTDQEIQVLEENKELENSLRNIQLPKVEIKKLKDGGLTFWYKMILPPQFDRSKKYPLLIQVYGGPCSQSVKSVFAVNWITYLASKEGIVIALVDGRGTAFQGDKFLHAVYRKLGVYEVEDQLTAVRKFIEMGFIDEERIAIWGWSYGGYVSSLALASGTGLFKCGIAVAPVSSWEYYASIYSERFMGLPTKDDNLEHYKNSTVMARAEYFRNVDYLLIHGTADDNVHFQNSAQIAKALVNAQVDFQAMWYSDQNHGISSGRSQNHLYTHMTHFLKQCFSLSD
Outline: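 K2EDTA plasma served as enzyme source, human diluted 1:40 and mouse 1:67, in PBS with 0.1% BSA. Compounds ran as a 10-point 3-fold series from 500 nM final, in duplicate, 40 min at rt in the dark, with fluorescence read against a pre-substrate blank. IC50 came from % inhibition versus log concentration.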

[3] = Metabolic stability in human liver microsomes (HLM); conditions: human
Description: Metabolic stability in HLM was measured as described in J Comput Aided Mol Des 2015, 29, 795.

[4] = molecular target: T1, FAP (Homo sapiens (Human), UniProt Q12884); assay: FAP plasma inhibition assay, human plasma; type: biochemical; conditions: human plasma diluted 1:40, Ala-Pro-AMC 75 μM
Description: This assay was adapted from the method described in Example 237 for detection of FAP target engagement enzyme activity in plasma. Plasma (anticoagulant K2EDTA) was used as the enzyme source: Human plasma (Pooled from AZ Biobank), Mouse plasma (AZ AST Biobank), and Cynomolgus plasma (BioIVT, #NHP00PLK2FNN, lot CYN222895). 384-Well black fluotrack PS plates (Greiner 781076) were used. 20 μL diluted plasma (Cynomolgus and Human plasma dilution 1:40, Mouse plasma dilution 1:67) in buffer (PBS, 0.1% BSA) was added to 0.6 μL compounds (in DMSO). Compounds were tested using 10 CR, 3 fold dilution series from 500 nM FAC. Two replicates for each assay point were run on the same plate. A fluorescence blank read was taken before substrate addition. […] Plates were incubated for 40 min at rt in the dark. […] IC50 values were determined by plotting % inhibition versus log compound concentration.
Target sequence in this assay (Q12884 24-760): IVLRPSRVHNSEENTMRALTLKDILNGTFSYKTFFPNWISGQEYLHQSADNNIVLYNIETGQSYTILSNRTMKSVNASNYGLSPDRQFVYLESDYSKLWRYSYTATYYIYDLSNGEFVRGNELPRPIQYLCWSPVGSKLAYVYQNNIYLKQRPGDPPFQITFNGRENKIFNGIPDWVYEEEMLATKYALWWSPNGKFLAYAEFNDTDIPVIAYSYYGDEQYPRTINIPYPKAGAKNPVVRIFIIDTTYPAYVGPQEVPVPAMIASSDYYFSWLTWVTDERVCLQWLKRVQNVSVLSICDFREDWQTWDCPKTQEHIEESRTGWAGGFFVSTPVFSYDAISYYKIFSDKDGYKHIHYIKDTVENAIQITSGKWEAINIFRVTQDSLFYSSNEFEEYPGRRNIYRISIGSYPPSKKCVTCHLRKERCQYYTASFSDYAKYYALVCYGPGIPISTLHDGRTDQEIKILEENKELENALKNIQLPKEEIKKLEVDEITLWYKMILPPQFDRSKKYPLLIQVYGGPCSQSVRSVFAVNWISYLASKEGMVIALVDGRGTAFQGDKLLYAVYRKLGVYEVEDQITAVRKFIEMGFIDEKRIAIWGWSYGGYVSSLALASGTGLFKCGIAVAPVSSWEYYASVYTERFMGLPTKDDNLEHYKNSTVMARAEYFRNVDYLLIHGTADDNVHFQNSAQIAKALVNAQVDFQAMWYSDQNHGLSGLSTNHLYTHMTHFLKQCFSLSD

[5] = Kinetic solubility; conditions: kinetic from dmso stock
Description: Kinetic solubility was measured as described in Comput Aided Mol Des 2015, 29, 795.

[6] = Metabolic stability in human hepatocytes (hHep); type: in vitro ADME; conditions: n = 1 or geometric mean of n = 2
[7] = Caco-2 cell permeability; conditions: human
Description: Caco-2 cell permeability was measured as described in Mol Pharm 2017, 14, 1601.

[8] = molecular target: Prolyl endopeptidase, Prolyl Oligopeptidase (hPREP) (Homo sapiens (Human), UniProt P48147); assay: hPrep inhibition assay; type: biochemical; conditions: hPREP 0.6 nM, Z-Gly-Pro-amino-methylcoumarin 50 μM; read-out: PREP IC50
Chain of Prolyl endopeptidase, Prolyl Oligopeptidase (hPREP) (P48147 whole entry): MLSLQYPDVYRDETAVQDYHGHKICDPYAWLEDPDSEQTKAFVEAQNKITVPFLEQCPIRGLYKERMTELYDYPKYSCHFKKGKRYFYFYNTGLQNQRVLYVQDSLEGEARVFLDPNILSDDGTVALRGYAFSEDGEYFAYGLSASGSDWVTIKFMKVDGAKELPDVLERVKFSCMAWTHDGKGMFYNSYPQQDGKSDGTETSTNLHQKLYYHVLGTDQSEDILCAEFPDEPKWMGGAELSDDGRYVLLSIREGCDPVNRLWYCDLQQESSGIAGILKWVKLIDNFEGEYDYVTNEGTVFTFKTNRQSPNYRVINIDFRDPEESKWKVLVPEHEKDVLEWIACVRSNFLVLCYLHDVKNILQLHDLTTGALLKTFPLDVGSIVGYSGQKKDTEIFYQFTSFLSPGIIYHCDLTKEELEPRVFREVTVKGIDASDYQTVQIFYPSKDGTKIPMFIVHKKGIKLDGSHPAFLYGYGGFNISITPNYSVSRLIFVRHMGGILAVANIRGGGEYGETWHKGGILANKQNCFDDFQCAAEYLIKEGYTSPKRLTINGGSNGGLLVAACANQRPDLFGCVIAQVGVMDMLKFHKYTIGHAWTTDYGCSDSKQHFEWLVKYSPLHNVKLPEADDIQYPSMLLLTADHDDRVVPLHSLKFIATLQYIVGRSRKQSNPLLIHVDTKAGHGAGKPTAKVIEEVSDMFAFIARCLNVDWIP
Outline: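 Fluorogenic read-out (340 nm excitation, 460 nm emission) after 20 min at rt, using 50 μM final Z-Gly-Pro-aminomethylcoumarin and 0.6 nM final enzyme, following 15 min compound preincubation. Buffer pH 7.5 with glutathione and Triton X-100. IC50 via one-site model on % inhibition vs log concentration.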

[9] = molecular target: hFAP (M39-A757) (Homo sapiens (Human), UniProt Q12884); assay: hFAP binding assay (surface plasmon resonance); conditions: SPR, 20° C.; for hFAP Binding assay k(off) / hFAP Binding assay k(on): single cycle kinetics; for Kd: n = 1 or geometric mean n = 2-4
Chain of hFAP (M39-A757) (Q12884 39-757): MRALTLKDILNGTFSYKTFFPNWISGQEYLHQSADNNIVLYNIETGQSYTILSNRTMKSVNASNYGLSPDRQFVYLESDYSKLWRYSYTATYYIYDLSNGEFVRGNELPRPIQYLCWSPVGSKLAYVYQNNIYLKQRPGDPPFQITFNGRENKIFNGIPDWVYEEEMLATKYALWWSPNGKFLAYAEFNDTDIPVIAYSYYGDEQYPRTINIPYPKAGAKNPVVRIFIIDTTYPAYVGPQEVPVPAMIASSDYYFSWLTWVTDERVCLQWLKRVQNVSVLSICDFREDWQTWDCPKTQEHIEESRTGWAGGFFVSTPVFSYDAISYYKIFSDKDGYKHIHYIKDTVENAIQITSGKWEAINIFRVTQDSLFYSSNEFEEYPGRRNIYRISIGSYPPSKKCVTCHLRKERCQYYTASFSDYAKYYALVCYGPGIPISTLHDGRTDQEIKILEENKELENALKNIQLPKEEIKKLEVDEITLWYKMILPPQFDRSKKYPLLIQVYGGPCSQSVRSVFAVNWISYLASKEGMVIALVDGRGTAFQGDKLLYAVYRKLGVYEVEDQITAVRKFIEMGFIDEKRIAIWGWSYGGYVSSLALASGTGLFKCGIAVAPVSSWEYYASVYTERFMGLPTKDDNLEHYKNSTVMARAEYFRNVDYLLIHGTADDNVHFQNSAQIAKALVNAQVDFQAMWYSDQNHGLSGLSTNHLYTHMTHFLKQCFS

[10] = molecular target: human Fibroblast activation protein alpha (hFAP) (Homo sapiens (Human), UniProt Q12884); assay: hFAP inhibition assay (tight binders); type: biochemical; conditions: Ala-Pro-AMC 20 μM, n = 1 or geometric mean n = 2-6; note: hFAP 2.4 pM
Chain of human Fibroblast activation protein alpha (hFAP) (Q12884 38-760): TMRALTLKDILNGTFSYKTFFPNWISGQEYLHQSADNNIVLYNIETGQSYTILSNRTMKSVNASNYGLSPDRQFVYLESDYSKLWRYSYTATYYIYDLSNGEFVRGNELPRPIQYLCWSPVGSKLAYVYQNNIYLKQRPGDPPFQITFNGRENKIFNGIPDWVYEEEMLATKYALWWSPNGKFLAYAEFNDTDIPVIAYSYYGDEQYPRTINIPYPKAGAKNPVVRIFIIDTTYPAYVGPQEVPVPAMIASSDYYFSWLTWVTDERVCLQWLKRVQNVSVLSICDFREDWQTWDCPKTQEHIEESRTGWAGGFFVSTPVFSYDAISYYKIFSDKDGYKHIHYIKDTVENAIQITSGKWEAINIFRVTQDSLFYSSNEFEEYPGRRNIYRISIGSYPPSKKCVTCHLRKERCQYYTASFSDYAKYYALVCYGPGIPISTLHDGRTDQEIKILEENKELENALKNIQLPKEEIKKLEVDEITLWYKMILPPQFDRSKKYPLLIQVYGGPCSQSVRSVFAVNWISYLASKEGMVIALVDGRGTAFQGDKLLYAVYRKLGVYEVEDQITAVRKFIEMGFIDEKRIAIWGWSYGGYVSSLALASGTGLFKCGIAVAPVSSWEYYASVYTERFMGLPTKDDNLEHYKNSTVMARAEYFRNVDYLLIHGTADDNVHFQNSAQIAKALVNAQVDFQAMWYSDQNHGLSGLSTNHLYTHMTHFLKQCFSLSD
Description: The plates were read on a PHERAstar® reader with excitation 340 nm and emission 460 nm. Data were analyzed in Genedata Screener®. IC50 values were determined by plotting % inhibition versus log compound concentration and using a one site dose response model.

[11] = Metabolic stability in rat hepatocytes (rHep); conditions: n = 1 or geometric mean of n = 2-3
[12] = molecular target: T1, FAP; assay: hFAP inhibition assay; type: biochemical; conditions: hFAP […], Ala-Pro-AMC 20 μM; n = 1 or geometric mean n = 2-3
Outline: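 Compounds (10-point, 3-fold dilutions from 50 μM top) were preincubated 15 min at rt in the dark with 0.48 nM hFAP in pH 7.4 Tris/NaCl/Chaps buffer. Reaction was started with substrate (40 μM solution) and ran 30 min at rt. Read by fluorescence (340/460 nm); IC50 from one-site fit.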
Target sequence in this assay (Q12884 38-760): as above

[13] = molecular target: Fibroblast Activation Protein alpha (FAP) (Mus musculus (Mouse), UniProt P97321); assay: in vivo
Chain of Fibroblast Activation Protein alpha (FAP) (P97321 24-761): as the sequence (P97321 24-761) above
Description: The effect of test compound on FAP enzyme activity in mouse plasma was evaluated in an enzymatic assay using the Fibroblast Activation Protein alpha (FAP) specific fluorogenic substrate dipeptide-Coumarin, Ala-Pro-AMC, (ARI-3144).
Male C57Bl/6 mice (Charles River, Germany), 8 weeks of age, were single housed in a temperature-controlled room with a 12-hour light/dark cycle (06:00-18:00 light). The mice had ad libitum access to water and rodent chow diet (R70, Lactamin, Kimstad, Sweden), and were acclimated for 5 days upon arrival. After acclimation, all mice received a single oral dose of test compound (3 or 10 mg/kg). Blood samples for whole blood compound exposure measurements were taken at 0.25, 0.5, 1, 2, 4, 8 and 24 h post oral dosing. Samples were collected in EDTA capillary tubes (20 μL, K2E, REF 19.447) and were transferred to a 96-deep well plate (NUNC, Thermo Discher Scientific) and stored at −20° C. until further analyses were performed. Blood samples for plasma FAP enzyme activity measurements were taken at 0, 0.25, 0.5, 1, 2, 8 and 24 h post dosing. 25 μL of whole blood was collected in EDTA Microvette® CB 300 (K2E, REF 16.444.100) tubes, and were centrifuged at 4,000×g for 5 min. 10 μL of plasma was then transferred to PCR tubes and stored at −20° C. until further analysis was performed. All blood samples were taken by vena saphena puncture.
Recombinant human FAP (PB-17-1837, construct PL-17-0278, cd33-FAP (27-757)-6His, Mw85926 Da) was used as a standard for this assay. […] The plates were read on a Beckman Paradigm reader with excitation 360 nm and emission 465 nm. Fluorescence measurements were performed with kinetic read every 5 minutes for 60 min at room temperature. Data were analyzed in Excel (IDBS XLfit Add-In) using a Linear Regression (y=k*x+m) model to prepare a human recombinant FAP standard curve.
On the day of the assay, plasma was diluted (1:2) to 20 μL volume in buffer (PBS, 0.1% BSA) and 7.5 μL was transferred to the assay plate (384-well black, fluotrack PS, Greiner 781076). Ala-Pro-AMC (stock solution in 10 mM DMSO) was diluted in buffer (PBS, 0.1% BSA) to 150 μM concentration (180 μL stock solution to 12 mL buffer) and 7.5 μL added to the assay plate followed by a pipetting mix. The plates were read on a Beckman Paradigm reader with excitation 360 nm and emission 465 nm. Fluorescence measurements were performed with kinetic read every 5 minutes for 60 minutes at room temperature. As noted above, FAP cleaves Ala-Pro-AMC to release free AMC which is measured as a fluorescent signal.
The in vivo potency IC50 of each test compound was then estimated by relating the plasma exposure C of the compound to target engagement E in plasma using the following equation:
where E0 is the FAP baseline in plasma prior to dosing and Imax is the maximum effect of the compound. Data from each target engagement experiment were considered separately and therefore slightly different estimates of FAP baseline for each compound were obtained. […] The parameter estimation was done in Phoenix WinNonlin Certara build 8.1.0.3530 with the algorithm ‘Naïve pooled’ as parameter estimation method.

[14] = HLM CLint, n = 1 or average of n = 2-3
[15] = Solubility, kinetic solubility, n = 1 or average of n = 2-3

| IC50 [1] [nM] | IC50 [2] [nM] | microsomal CLint [3, 14] [µL/min/mg] | IC50 [4] [nM] | solubility [5, 15] [µM] | hHep CLint [6] [μL/min/1E6] | Papp [7] [×10⁻⁶ cm/s] | Papp A→B [7] [×10⁻⁶ cm/s] | Papp B→A [7] [×10⁻⁶ cm/s] | efflux ratio [7] | IC50 [8] [nM] | hFAP Binding assay k(off) [9] [s⁻¹] | hFAP Binding assay k(on) [9] [M⁻¹ s⁻¹] | Kd [9] [nM] | IC50 [10] [nM] | rHep CLint [11] [μL/min/1E6] | IC50 [12] [nM] | IC50 [13] [nM] | SMILES | microsomal CLint [3] [µL/min/mg] | solubility [5] [µM] |
| --- | --- | --- | --- | --- | --- | --- | --- | --- | --- | --- | --- | --- | --- | --- | --- | --- | --- | --- | --- | --- |
| > 100000 | 0.2 |  |  |  |  |  |  |  |  |  |  |  |  |  |  |  |  | COC1CCN(c2ccc3nccc(C(=O)NCC(=O)N4CSC[C@H]4C#N)c3c2)CC1 [Example 8, (R)—N-(2-(4-Cyanothiazolidin-3-yl)-2-oxoethyl)-6-(4-methoxypiperidin-1-yl)quinoline-4-carboxamide] |  |  |
|  | 0.3 | 22 | 0.2 | > 980 | <1 | 13 | 1.3 | 29 | 23 | 1200 | 0.00034 | 4200000 | 0.082 | 0.074 | 8.6 | 0.31 |  | CC1(C)CN(c2ccc3nccc(C(=O)NCC(=O)N4CSC[C@H]4C#N)c3c2)CCO1 [Example 88, (R)—N-(2-(4-Cyanothiazolidin-3-yl)-2-oxoethyl)-6-(2,2-dimethyl-morpholino)quinoline-4-carboxamide] |  |  |
| > 100000 |  |  |  |  |  |  |  |  |  |  |  |  |  |  |  |  |  | N#C[C@@H]1CSCN1C(=O)CNC(=O)c1ccnc2ccc(N3CCC4(CCCC4)OC3=O)cc12 [Example 111, (R)—N-(2-(4-cyanothiazolidin-3-yl)-2-oxoethyl)-6-(7-oxo-6-oxa-8-azaspiro[4.5]decan-8-yl)quinoline-4-carboxamide] |  |  |
|  | 0.5 | < 3 | 0.2 | 71 (≈ 29.4 µg/mL) | <1.5 | 20 | 1.9 | 23 | 12 | 490 | 0.000045 | 1500000 | 0.031 | 0.12 | 11 | 0.25 | 2 | N#C[C@@H]1CSCN1C(=O)CNC(=O)c1ccnc2ccc(N3CC(CF)C3)cc12 [Example 113, (R)—N-(2-(4-Cyanothiazolidin-3-yl)-2-oxoethyl)-6-(3-(fluoromethyl)azetidin-1-yl)quinoline-4-carboxamide] |  |  |
|  |  | 18 |  | 26 (≈ 11.8 µg/mL) |  |  |  |  |  | 440 | 0.00096 | 6200000 | 0.16 | 0.057 | 8.8 | 0.22 | 1.4 | N#C[C@@H]1CSCN1C(=O)CNC(=O)c1ccnc2ccc(-c3ccc(C(F)F)nc3)cc12 [Example 169, (R)—N-(2-(4-cyanothiazolidin-3-yl)-2-oxoethyl)-6-(6-(difluoromethyl)pyridin-3-yl)quinoline-4-carboxamide] |  |  |
|  | 0.5 |  |  |  |  |  |  |  |  | 260 | 0.00018 | 10000000 |  |  |  |  | 8.7 | N#C[C@@H]1CSCN1C(=O)CNC(=O)c1ccnc2ccc(-c3cnn(C4CC4)c3)cc12 [Example 170, (R)—N-(2-(4-Cyanothiazolidin-3-yl)-2-oxoethyl)-6-(1-cyclopropyl-1H-pyrazol-4-yl)quinoline-4-carboxamide] |  |  |
|  | 0.6 | < 3 | 0.2 | 930 (≈ 432 µg/mL) | <1 | 0.1 | 0.25 | 0.78 | 3.1 | 1100 | 0.000014 | 950000 | 0.015 | 0.22 | <1 | 0.4 |  | CC(=O)N1CC2(C1)CN(c1ccc3nccc(C(=O)NCC(=O)N4CSC[C@H]4C#N)c3c1)C2 [Example 184, (R)-6-(6-Acetyl-2,6-diazaspiro[3.3]heptan-2-yl)-N-(2-(4-cyanothiazolidin-3-yl)-2-oxoethyl)quinoline-4-carboxamide] |  |  |
|  | 0.3 |  |  |  |  |  |  |  |  | 640 | 0.000046 | 2100000 |  |  |  |  | 1.2 | N#C[C@@H]1CSCN1C(=O)CNC(=O)c1ccnc2ccc(N3CCC(F)CC3)cc12 [Example 205, (R)—N-(2-(4-Cyanothiazolidin-3-yl)-2-oxoethyl)-6-(4-fluoropiperidin-1-yl)quinoline-4-carboxamide] |  |  |

| SMILES | IC50 [1] [nM] | IC50 [2] [nM] | microsomal CLint [3, 14] [µL/min/mg] | IC50 [4] [nM] | solubility [5, 15] [µM] | hHep CLint [6] [μL/min/1E6] | Papp [7] [×10⁻⁶ cm/s] | Papp A→B [7] [×10⁻⁶ cm/s] | Papp B→A [7] [×10⁻⁶ cm/s] | efflux ratio [7] | IC50 [8] [nM] | hFAP Binding assay k(off) [9] [s⁻¹] | hFAP Binding assay k(on) [9] [M⁻¹ s⁻¹] | Kd [9] [nM] | IC50 [10] [nM] | rHep CLint [11] [μL/min/1E6] | IC50 [12] [nM] | IC50 [13] [nM] | microsomal CLint [3] [µL/min/mg] | solubility [5] [µM] |
| --- | --- | --- | --- | --- | --- | --- | --- | --- | --- | --- | --- | --- | --- | --- | --- | --- | --- | --- | --- | --- |
| N#C[C@@H]1CSCN1C(=O)CNC(=O)c1ccnc2ccc(N3C4CCC3COC4)cc12 [Example 98, 6-(3-Oxa-8-azabicyclo[3.2.1]octan-8-yl)-N-(2-((R)-4-cyanothiazolidin-3-yl)-2-oxoethyl)quinoline-4-carboxamide] |  | 0.4 | 26 | 0.2 | > 1000 | 1.8 | 8.6 | 0.71 | 18 | 25 | 790 | 0.000015 | 1600000 | 0.0088 | 0.11 | 13 | 0.27 |  |  |  |
| N#C[C@@H]1CSCN1C(=O)CNC(=O)c1ccnc2ccc(N3CCC4(CCCCC4)OC3=O)cc12 [Example 110, (R)—N-(2-(4-cyanothiazolidin-3-yl)-2-oxoethyl)-6-(2-oxo-1-oxa-3-azaspiro[5.5]undecan-3-yl)quinoline-4-carboxamide] | > 100000 |  |  |  |  |  |  |  |  |  |  |  |  |  |  | 3.3 |  |  | 39 | 950 (≈ 469 µg/mL) |
| N#C[C@@H]1CSCN1C(=O)CNC(=O)c1ccnc2ccc(N3CC4(COC4)C3)cc12 [Example 166, (R)—N-(2-(4-Cyanothiazolidin-3-yl)-2-oxoethyl)-6-(2-oxa-6-azaspiro[3.3]heptan-6-yl)quinoline-4-carboxamide] |  | 0.6 |  | 0.3 |  | <1 | 2 | 0.56 | 13 | 24 | 1700 | 0.000049 | 2200000 | 0.03 | 0.22 | <1 | 0.34 |  | < 3 | > 910 |

Reference: US20230312550A1, “N-(2-(4-CYANOTHIAZOLIDIN-3-YL)-2-OXOETHYL)-QUINOLINE-4-CARBOXAMIDES” (AstraZeneca AB, priority 2020, published 2023)
